The values below come from patent EP4512398A1, “FLURALANER FOR USE IN METHODS OF TREATMENT AND PREVENTION OF SEA LICE INFESTATION IN FISH” (Bimeda Animal Health Limited, priority 2023, dated 2025).

One series concerns L. salmonis. Briefly: proof-of-concept efficacy experiment: fluralaner in feed to sea-lice-infected farmed Atlantic salmon, lice counts. In kind it is in vivo. The note with it: for Average lice per fish / Total lice: 15 salmon sampled. The method, then:
(§1) A proof-of-concept experiment was carried out to determine the efficacy of fluralaner as a treatment for L. salmonis in farmed Atlantic salmon. Salmon infected with sea lice were divided evenly into three tanks, 41 fish per tank. Tank A acted as a control and no fluralaner was administered to the salmon, Tank B was given a low dog dose (25 mg/ kg of body weight) treatment and Tank C was given a high dog dose treatment (56 mg/ kg body weight). (See bravecto-epar-product-information attached for dosing rates). The powdered form of the drug was administered by mixing with standard aquaculture salmonid feed using fish oil as a binder. The experiment lasted for one week, between the 4/08/23 and the 11/08/23.

In another series the test system is Atlantic salmon. The series can be described thus: mortality, adverse effects and behaviour of treated salmon in the proof-of-concept trial. In kind it is in vivo. The method, then: as §1
Samples have been retained for histology and residue testing.

[1] abbreviates: Tank B, 25 mg/ kg of body weight oral in feed, 04/08/2023 (start of experiment, baseline).
The mark [2] stands for this setting: Tank C, 56 mg/ kg body weight oral in feed, 04/08/2023 (start of experiment, baseline).

Regarding `Cc1cc(C2=NOC(c3cc(Cl)cc(Cl)c3)(C(F)(F)F)C2)ccc1C(=O)NCC(=O)NCC(F)(F)F` (stereo not shown) [fluralaner, Fluralaner], the “Average lice per fish” value is recorded as 25.8 with L. salmonis (setting [1]); 0.1 with L. salmonis (Tank B, 25 mg/ kg of body weight oral in feed, 11/08/2023 (after one week), control Tank A 21.9); 23.3 with L. salmonis (setting [2]); 0 with L. salmonis (Tank C, 56 mg/ kg body weight oral in feed, 11/08/2023 (after one week), control Tank A 21.9). Besides, the Total lice in the series on L. salmonis (setting [1]) was found to be 387; with L. salmonis (Tank B, 25 mg/ kg of body weight oral in feed, 11/08/2023 (after one week), control Tank A 329), 1; with L. salmonis (setting [2]) it was 350; with L. salmonis (Tank C, 56 mg/ kg body weight oral in feed, 11/08/2023 (after one week), control Tank A 329), 0. The “total lice numbers on the salmon that received the treatment” value in the series on L. salmonis (after one week, control tank remained high) was “significantly reduced”. In addition, the “efficacy in treating L. salmonis in Atlantic salmon” value with L. salmonis (preliminary study, oral in feed, 25 and 56 mg/kg) is listed as “highly effective”. The mortalities result in the series on Atlantic salmon (during the trial period or since its discontinuation) is “no mortalities”. Further, in the series on Atlantic salmon (trial period), the “adverse effects on the salmon” value is “no obvious adverse effects”. For the same compound, the “behaviour of the salmon” value with Atlantic salmon (trial period) is on record as “normal”.
